Type in all cases: biochemical
One experiment deals with LRRK2 (G2019S) (Homo sapiens, UniProt Q5S007, G2019S). Kind of experiment: LRRK2 G2019S enzyme inhibition, ADP-Glo kinase assay. To be noted: ATP 25 μM. More on the design: purchased SignalChem L10-12GG. Put shortly: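 IC50 derived from luminescent ADP-Glo readout against untreated solvent control, twelve final compound concentrations from 50 μM downward. Reaction: recombinant human LRRK2 G2019S enzyme, 25 μM ATP, substrate, pH 7.4 Tris buffer with MgCl2/BSA/DTT, 25° C. for 2 hours.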

A further experiment concerns the target T1, human GST-DYRK1A (Homo sapiens, UniProt Q13627).
T1 construct: purified human GST-DYRK1A (full length, Thermo Scientifics) enzyme; purchased Thermo Scientifics
Kind of experiment: GST-DYRK1A enzyme inhibition, ADP-Glo kinase assay. Particulars: ATP 10 μM, GST-DYRK1A full length, read-out: DYRK1 IC50. The method, boiled down: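 Full-length enzyme (10 ng) was incubated with 10 μM ATP and a specific substrate for 1 h at 25 °C in 40 mM Tris-HCl pH 7.4, 20 mM MgCl2, 0.5 mg/mL BSA, 50 μM DTT. Luminescence was read against a solvent control, and IC50 values were derived from 3 data sets.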

In a further experiment the target is T2, human GST-CLK1 (Homo sapiens, UniProt P49759).
T2 construct: purified human GST-CLK1 (129-end, SignalChem) enzyme; purchased SignalChem
Kind of experiment: GST-CLK1 enzyme inhibition, ADP-Glo kinase assay. To be noted: ATP 10 μM, GST-CLK1 129-end. Put shortly: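 ADP-Glo luminescence read-out, relative to untreated solvent control, gave IC50 (nM) from triplicate data sets. Reactions ran an hour at 25° C with 3 ng GST-CLK1 (residues 129-end), 10 μM ATP and specific substrate in Tris-HCl pH 7.4 buffer with MgCl2, BSA and DTT.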

The structures appear in SMILES notation.

T2 sequence (P49759 129-484 limits assumed): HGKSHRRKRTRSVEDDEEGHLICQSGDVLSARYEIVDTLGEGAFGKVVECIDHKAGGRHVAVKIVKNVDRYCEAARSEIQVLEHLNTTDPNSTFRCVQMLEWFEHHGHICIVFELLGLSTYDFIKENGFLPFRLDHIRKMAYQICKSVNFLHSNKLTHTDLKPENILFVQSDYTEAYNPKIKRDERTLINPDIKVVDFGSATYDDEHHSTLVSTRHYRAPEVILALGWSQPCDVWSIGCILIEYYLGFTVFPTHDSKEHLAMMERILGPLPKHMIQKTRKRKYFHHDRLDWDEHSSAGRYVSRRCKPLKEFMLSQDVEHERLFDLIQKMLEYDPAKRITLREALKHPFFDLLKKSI
Chain of LRRK2 (G2019S) (Q5S007 970-2527 G2019S limits assumed): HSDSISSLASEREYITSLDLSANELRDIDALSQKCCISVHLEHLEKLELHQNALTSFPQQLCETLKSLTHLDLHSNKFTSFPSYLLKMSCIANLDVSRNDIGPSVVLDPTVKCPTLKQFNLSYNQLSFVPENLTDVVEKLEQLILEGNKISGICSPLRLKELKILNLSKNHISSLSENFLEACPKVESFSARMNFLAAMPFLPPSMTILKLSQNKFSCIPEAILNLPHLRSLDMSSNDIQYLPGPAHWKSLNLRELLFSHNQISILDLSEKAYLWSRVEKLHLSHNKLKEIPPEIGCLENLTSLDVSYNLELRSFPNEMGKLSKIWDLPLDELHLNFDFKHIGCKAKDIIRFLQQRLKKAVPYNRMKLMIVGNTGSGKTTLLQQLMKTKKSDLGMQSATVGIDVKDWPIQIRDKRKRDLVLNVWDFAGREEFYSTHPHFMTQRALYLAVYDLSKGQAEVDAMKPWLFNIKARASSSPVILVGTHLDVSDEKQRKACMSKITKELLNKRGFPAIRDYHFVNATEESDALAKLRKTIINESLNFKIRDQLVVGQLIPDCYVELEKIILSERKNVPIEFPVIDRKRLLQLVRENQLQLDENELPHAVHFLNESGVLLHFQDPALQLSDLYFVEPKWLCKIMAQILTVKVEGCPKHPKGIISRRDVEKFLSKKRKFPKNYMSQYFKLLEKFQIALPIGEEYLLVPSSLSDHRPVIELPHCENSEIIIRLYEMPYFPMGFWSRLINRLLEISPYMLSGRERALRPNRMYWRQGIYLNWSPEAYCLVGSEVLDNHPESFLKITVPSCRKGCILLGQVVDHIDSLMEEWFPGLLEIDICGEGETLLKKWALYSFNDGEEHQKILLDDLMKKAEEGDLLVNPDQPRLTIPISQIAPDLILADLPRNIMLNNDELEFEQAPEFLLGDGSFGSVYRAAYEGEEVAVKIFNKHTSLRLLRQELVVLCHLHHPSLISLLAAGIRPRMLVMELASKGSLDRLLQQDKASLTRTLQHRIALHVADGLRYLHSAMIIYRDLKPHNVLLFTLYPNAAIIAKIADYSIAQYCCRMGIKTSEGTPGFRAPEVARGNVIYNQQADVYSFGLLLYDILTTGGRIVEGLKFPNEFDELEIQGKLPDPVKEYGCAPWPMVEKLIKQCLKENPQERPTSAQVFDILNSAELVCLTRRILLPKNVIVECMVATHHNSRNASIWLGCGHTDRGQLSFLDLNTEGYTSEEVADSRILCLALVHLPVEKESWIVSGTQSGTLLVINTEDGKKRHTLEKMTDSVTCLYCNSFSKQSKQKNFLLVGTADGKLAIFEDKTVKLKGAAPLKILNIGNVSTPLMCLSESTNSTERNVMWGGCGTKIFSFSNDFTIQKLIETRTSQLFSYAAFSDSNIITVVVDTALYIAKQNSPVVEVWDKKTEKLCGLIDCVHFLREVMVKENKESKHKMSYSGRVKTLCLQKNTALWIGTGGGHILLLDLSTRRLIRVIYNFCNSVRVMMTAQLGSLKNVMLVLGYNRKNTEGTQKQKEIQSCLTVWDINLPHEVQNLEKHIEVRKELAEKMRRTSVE

As to `COc1cc(P2(=O)CCN(C3COC3)CC2)ccc1Nc1nc(NCCS(C)(=O)=O)c2c(C#N)c[nH]c2n1` [Example 314, 2-((2-methoxy-4-(1-(oxetan-3-yl)-4-oxido-1,4-azaphosphinan-4-yl)phenyl)amino)-4-((2-(methyl-sulfonyl)eth-yl)amino)-7H-pyrrolo[2,3-d]pyrimidine-5-carbonitrile], the figures for the half-maximal inhibitory concentration (IC50) against LRRK2 (G2019S), on human GST-DYRK1A and at human GST-CLK1 were below 100 nM, 301 to 1000 nM and 301 to 1000 nM, respectively.

In the case of `N#Cc1c[nH]c2nc(Nc3ccc(C(=O)N4CC(CO)(CO)C4)c4c3OCCO4)nc(NC3CC3)c12` [Example 332, 2-((8-(3,3-bis (hydroxymethyl)azetidine-1-carbonyl)-2,3-dihydrobenzo[b] [1,4]dioxin-5-yl)amino)-4-(cyclopropyl-amino)-7H-pyrrolo[2,3-d]pyrimidine-5-carbonitrile], the IC50 against LRRK2 (G2019S) was 101 to 300 nM; at human GST-DYRK1A, 301 to 1000 nM; against human GST-CLK1 it was below 100 nM.

`CS(=O)(=O)CCNc1nc(Nc2ccc(C(=O)N3CCC(N4CCOCC4)CC3)c3c2OCC3)nc2[nH]cc(C#N)c12` [Example 345, 4-((2-(methyl-sulfonyl)eth-yl)amino)-2-((4-(4-morpholino-piperidine-1-carbonyl)-2,3-dihydro-benzofuran-7-yl)amino)-7H-pyrrolo[2,3-d]pyrimidine-5-carbonitrile]: the IC50 against LRRK2 (G2019S) was below 100 nM; at human GST-DYRK1A, 301 to 1000 nM; on human GST-CLK1 it was below 100 nM.

As for `CC(C)Nc1nc(Nc2ccc(C(=O)N3CCC(N4CCOCC4)CC3)c3c2OCC3)nc2[nH]cc(C#N)c12` [Example 353, 4-(isopropylamino)-2-((4-(4-morpholino-piperidine-1-carbonyl)-2,3-dihydro-benzofuran-7-yl)amino)-7H-pyrrolo[2,3-d]pyrimidine-5-carbonitrile], the IC50 at LRRK2 (G2019S), on human GST-DYRK1A and against human GST-CLK1 was below 100 nM in each case.

Turning to `CC[C@@H](C)Nc1nc(Nc2ccc(C(=O)N3CCOCC3)c3c2OCC3)nc2[nH]cc(C#N)c12` [Example 354, (R)-4-(sec-butylamino)-2-((4-(morpholine-4-carbonyl)-2,3-dihydrobenzo-furan-yl)amino)-7H-pyrrolo[2,3-d]pyrimidine-5-carbonitrile], the IC50 against LRRK2 (G2019S) was below 100 nM; at human GST-DYRK1A, 301 to 1000 nM; on human GST-CLK1 it was below 100 nM.

Take `CC[C@@H](C)Nc1nc(Nc2ccc(C(=O)N3CCC(N4CCOCC4)CC3)c3c2OCC3)nc2[nH]cc(C#N)c12` [Example 355, (R)-4-(sec-butylamino)-2-((4-(4-morpho-linopiperidine-1-carbonyl)-2,3-dihydro-benzofuran-7-yl)amino)-7H-pyrrolo[2,3-d]pyrimidine-5-carbonitrile]: the IC50 against LRRK2 (G2019S), on human GST-DYRK1A and against human GST-CLK1 was below 100 nM throughout.

In the case of `CC[C@H](C)Nc1nc(Nc2ccc(C(=O)N3CCOCC3)c3c2OCC3)nc2[nH]cc(C#N)c12` [Example 356, (S)-4-(sec-butylamino)-2-((4-(morpholine-4-carbonyl)-2,3-dihydro-benzofuran-7-yl)amino)-7H-pyrrolo[2,3-d]pyrimidine-5-carbonitrile], the IC50 against LRRK2 (G2019S) was below 100 nM; on human GST-DYRK1A, 301 to 1000 nM; on human GST-CLK1 it was 301 to 1000 nM.

With `CC[C@H](C)Nc1nc(Nc2ccc(C(=O)N3CCOCC3)c3c2OCCO3)nc2[nH]cc(C(F)(F)F)c12` [Example 381, (S)-(8-((4-(sec-butylamino)-5-(trifluoromethyl)-7H-pyrrolo[2,3-d]pyrimidin-2-yl)amino)-2,3-dihydrobenzo[b] [1,4]dioxin-5-yl)(morpholino) methanone], the IC50 was below 100 nM on LRRK2 (G2019S), 301 to 1000 nM on human GST-DYRK1A and 301 to 1000 nM against human GST-CLK1.

In the case of `COc1cc(S(C)(=O)=O)ccc1Nc1nc(N[C@H]2CCOC2)c2c(C(F)(F)F)c[nH]c2n1` [Example 384, (S)-N^2-(2-methoxy-4-(methylsulfonyl)phenyl)-N^4-(tetrahydrofuran-3-yl)-5-(trifluoromethyl)-7H-pyrrolo[2,3-d]pyrimidine-2,4-diamine], the IC50 is below 100 nM against LRRK2 (G2019S), 301 to 1000 nM at human GST-DYRK1A and below 100 nM against human GST-CLK1.

Regarding `CC[C@H](C)Nc1nc(Nc2ccc(P(C)(C)=O)cc2OC)nc2[nH]cc(C(F)(F)F)c12` [Example 385, (S)-(4-((4-(sec-butylamino)-5-(trifluoromethyl)-7H-pyrrolo[2,3-d]pyrimidin-2-yl)amino)-3-methoxyphenyl) dimethyl-phosphine oxide], the IC50 at LRRK2 (G2019S) was below 100 nM; on human GST-DYRK1A, 301 to 1000 nM; against human GST-CLK1, 301 to 1000 nM.

On to `COc1cc(P(C)(C)=O)ccc1Nc1nc(NC2CCCC2)c2c(C(F)(F)F)c[nH]c2n1` [Example 387, (4-((4-(cyclo-pentylamino)-5-(trifluoromethyl)-7H-pyrrolo[2,3-d]pyrimidin-2-yl)amino)-3-methoxy-phenyl)di-methylphosphine oxide], for which the concentration for half-maximal inhibition (IC50) against LRRK2 (G2019S) was below 100 nM; at human GST-DYRK1A, 301 to 1000 nM; against human GST-CLK1, 301 to 1000 nM.

With `COc1cc(P(C)(C)=O)ccc1Nc1nc(N[C@@H]2CCOC2)c2c(C(F)(F)F)c[nH]c2n1` [Example 388, (R)-(3-methoxy-4-((4-((tetrahydrofuran-3-yl)amino)-5-(trifluoromethyl)-7H-pyrrolo[2,3-d]pyrimidin-2-yl)amino)phenyl)di-methylphosphine oxide], the IC50 at LRRK2 (G2019S), on human GST-DYRK1A and against human GST-CLK1 was below 100 nM throughout.

For the molecule `COc1cc(P(C)(C)=O)ccc1Nc1nc(NC2CCOCC2)c2c(C(F)(F)F)c[nH]c2n1` [Example 389, (3-methoxy-4-((4-((tetrahydro-2H-pyran-4-yl)amino)-5-(trifluoromethyl)-7H-pyrrolo[2,3-d]pyrimidin-2-yl)amino)phenyl) dimethyl-phosphine oxide], the half-inhibitory concentration (IC50) against LRRK2 (G2019S) was below 100 nM; on human GST-DYRK1A it was 301 to 1000 nM; against human GST-CLK1, below 100 nM.

Take `COc1cc(P(C)(C)=O)ccc1Nc1nc(NCC2CC2)c2c(C(F)(F)F)c[nH]c2n1` [Example 390, (4-((4-((cyclo-propylmeth-yl)amino)-5-(trifluoromethyl)-7H-pyrrolo[2,3-d]pyrimidin-2-yl)amino)-3-methoxyphenyl) dimethyl-phosphine oxide]: the IC50 against LRRK2 (G2019S) is below 100 nM; on human GST-DYRK1A, 301 to 1000 nM; against human GST-CLK1, below 100 nM.

Consider `COc1cc(P(C)(C)=O)ccc1Nc1nc(NCC2CCC2)c2c(C(F)(F)F)c[nH]c2n1` [Example 391, (4-((4-((cyclo-butylmethyl)amino)-5-(trifluoromethyl)-7H-pyrrolo[2,3-d]pyrimidin-2-yl)amino)-3-methoxyphenyl) dimethyl-phosphine oxide], for which the IC50 at LRRK2 (G2019S) was below 100 nM; at human GST-DYRK1A, 301 to 1000 nM; on human GST-CLK1, 301 to 1000 nM.

For the molecule `COc1cc(P(C)(C)=O)ccc1Nc1nc(NCC2CCCC2)c2c(C(F)(F)F)c[nH]c2n1` [Example 392, (4-((4-((cyclo-pentylmeth-yl)amino)-5-(trifluoromethyl)-7H-pyrrolo[2,3-d]pyrimidin-2-yl)amino)-3-methoxyphenyl) dimethyl-phosphine oxide], the IC50 against LRRK2 (G2019S), on human GST-DYRK1A and on human GST-CLK1 was 301 to 1000 nM throughout.

With `CCCCNc1nc(Nc2ccc(P(C)(C)=O)cc2OC)nc2[nH]cc(C(F)(F)F)c12` [Example 393, (4-((4-(butylamino)-5-(trifluoromethyl)-7H-pyrrolo[2,3-d]pyrimidin-2-yl)amino)-3-methoxyphenyl) dimethyl-phosphine oxide], the IC50 was below 100 nM at LRRK2 (G2019S), 301 to 1000 nM on human GST-DYRK1A and 301 to 1000 nM against human GST-CLK1.

For `CCNc1nc(Nc2ccc(P3(=O)CCN(C4CC4)CC3)cc2OC)nc2[nH]cc(C(F)(F)F)c12` [Example 398, 1-cyclopropyl-4-(4-((4-(ethylamino)-5-(trifluoromethyl)-7H-pyrrolo[2,3-d]pyrimidin-2-yl)amino)-3-methoxyphenyl)-1,4-azaphosphinane 4-oxide], the IC50 was below 100 nM against LRRK2 (G2019S), 101 to 300 nM at human GST-DYRK1A and below 100 nM against human GST-CLK1.

As to `COc1cc(P2(=O)CCN(C3CC3)CC2)ccc1Nc1nc(NC2CCC2)c2c(C(F)(F)F)c[nH]c2n1` [Example 406], the IC50 lay within 101 to 300 nM on LRRK2 (G2019S), 301 to 1000 nM on human GST-DYRK1A and 101 to 300 nM at human GST-CLK1.

Consider `COc1cc(P2(=O)CCN(C3CC3)CC2)ccc1Nc1nc(N[C@H]2CCOC2)c2c(C(F)(F)F)c[nH]c2n1` [Example 417, (S)-1-cyclo-propyl-4-(3-methoxy-4-((4-((tetrahydrofuran-3-yl)amino)-5-(trifluoromethyl)-7H-pyrrolo[2,3-d]pyrimidin-2-yl)amino)phenyl)-1,4-azaphosphinane 4-oxide], for which the IC50 on LRRK2 (G2019S) was below 100 nM; on human GST-DYRK1A, 301 to 1000 nM; on human GST-CLK1 it was below 100 nM.

Source of the values: patent publication US20230066011A1, “PYRROLOPYRIMIDINE DERIVATIVE, AND PHARMACEUTICAL COMPOSITION FOR PREVENTING OR TREATING PROTEIN KINASE-RELATED DISEASE COMPRISING SAME AS ACTIVE INGREDIENT” (VORONOI CO., LTD., priority 2019, published 2023).
